Measured values as given in PubChem BioAssay AID276 (DTP/NCI, 2004).
Several values for one entry are separate records, joined by “and”; a condition that tells them apart may be missing. Equal entries are not always repeated. Toxic doses and inconclusive results are not listed.

Tested on: B6C3F1 mice, Lewis lung carcinoma iv, survival T/C
Test: NCI In Vivo Anticancer Drug Screen. Data for tumor model Lewis Lung Carcinoma (intravenous) in B6C3F1 mice
Conditions: endpoint: median survival time, schedule: Q01DX009 (ip), higher = longer survival
Method in brief: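 Tumors were transplanted into mice, which were then dosed with compound or vehicle. Survival was recorded in each group, and the treated figure was divided by the control figure.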

[1] = dose: 25.0 mg/kg/injection, vehicle: saline
[2] = dose: 50.0 mg/kg/injection, vehicle: saline
[3] = dose: 100.0 mg/kg/injection, vehicle: saline
[4] = dose: 2.0 mg/kg/injection, vehicle: saline
[5] = dose: 12.5 mg/kg/injection, vehicle: saline
[6] = dose: 12.5 mg/kg/injection, vehicle: suspension in saline
[7] = dose: 25.0 mg/kg/injection, vehicle: suspension in saline
[8] = dose: 50.0 mg/kg/injection, vehicle: suspension in saline

Q: What does the source list for `COc1cc2c(c(OC)c1OC)-c1c(cc3c(c1OC)OCO3)CC(C)C(C)(O)C2OC(=O)c1ccccc1` (stereo not given)?
A: T/C (dose: 6.25 mg/kg/injection, vehicle: saline + alcohol): 93 % of control; T/C (dose: 12.5 mg/kg/injection, vehicle: saline + alcohol): 96 % of control; T/C (dose: 25.0 mg/kg/injection, vehicle: saline + alcohol): 107 % of control; T/C (dose: 50.0 mg/kg/injection, vehicle: saline + alcohol): 102 % of control; T/C (dose: 100.0 mg/kg/injection, vehicle: saline + alcohol): 106 % of control; T/C (dose: 200.0 mg/kg/injection, vehicle: saline + alcohol): 103 % of control

Q: `[Cl][Co]([Cl])[Cl].[NH-]CC[N-]CC[NH-]` was tested. Which T/C [1] did it give?
A: Its T/C is 103 % of control.

Q: And the T/C [2]?
A: Its T/C is 96 % of control.

Q: And the T/C [3]?
A: Its T/C is 93 % of control.

Q: Which results are given for `CC(=O)C(=O)O.CC(=O)C(=O)O.[NH-]C1CCCCC1[NH-].[Pt+2]` (stereo not given)?
A: T/C (dose: 3.12 mg/kg/injection, vehicle: other): 98 % of control; T/C (dose: 6.25 mg/kg/injection, vehicle: other): 109 % of control; T/C (dose: 12.5 mg/kg/injection, vehicle: other): 96 % of control

Q: `Cc1c(N)nc([C@H](CC(N)=O)NC[C@H](N)C(N)=O)nc1C(=O)N[C@H](C(=O)N[C@H](C)[C@@H](O)CC(=O)N[C@H](C(=O)NC(O[C@@H]1O[C@@H](C)[C@@H](N)[C@@H](O)[C@H]1O)C(O)c1nc(-c2nc(C(=O)NCCCCN)cs2)cs1)[C@@H](C)O)[C@@H](O[C@@H]1O[C@@H](CO)[C@@H](O)[C@H](O)[C@@H]1O[C@H]1O[C@H](CO)[C@@H](O)[C@H](OC(N)=O)[C@@H]1O)c1c[nH]cn1` (stereo not given in full) was tested. Which T/C [4] did it give?
A: The T/C was 123 % of control.

Q: What about the T/C (dose: 8.0 mg/kg/injection, vehicle: saline) of the same compound?
A: The T/C was 176 % of control.

Q: For `O=C1C(O)=C(c2ccccc2)C(=O)C(O)=C1c1ccccc1`, which T/C (dose: 1.56 mg/kg/injection, vehicle: saline) is on record?
A: Its T/C is 98 % of control.

Q: And the T/C (dose: 3.12 mg/kg/injection, vehicle: saline)?
A: The T/C was 98 % of control and 117 % of control.

Q: What about the T/C (dose: 6.25 mg/kg/injection, vehicle: saline with Tween-80) of the same compound?
A: Its T/C is 99 % of control.

Q: What about the T/C (dose: 6.25 mg/kg/injection, vehicle: saline) of the same compound?
A: The T/C was 99 % of control and 118 % of control.

Q: What about the T/C (dose: 12.5 mg/kg/injection, vehicle: saline with Tween-80) of the same compound?
A: Its T/C is 101 % of control.

Q: And the T/C [5]?
A: The T/C was 108 % of control and 113 % of control.

Q: And the T/C (dose: 25.0 mg/kg/injection, vehicle: saline with Tween-80)?
A: The T/C was 101 % of control.

Q: And the T/C [1]?
A: Its T/C is 98 % of control and 104 % of control.

Q: And the T/C (dose: 50.0 mg/kg/injection, vehicle: saline with Tween-80)?
A: The T/C was 102 % of control.

Q: What about the T/C [2] of the same compound?
A: The T/C was 94 % of control and 99 % of control.

Q: With `Cc1ccc(S(=O)(=O)OCOS(=O)(=O)c2ccc(C)cc2)cc1` as the compound, how does the T/C (dose: 50.0 mg/kg/injection, vehicle: Klucel (hydroxypropylcellulose) (HPC)) read?
A: The T/C was 107 % of control.

Q: What about the T/C (dose: 100.0 mg/kg/injection, vehicle: Klucel (hydroxypropylcellulose) (HPC)) of the same compound?
A: Its T/C is 103 % of control.

Q: What about the T/C (dose: 200.0 mg/kg/injection, vehicle: Klucel (hydroxypropylcellulose) (HPC)) of the same compound?
A: The T/C was 108 % of control.

Q: And the T/C (dose: 400.0 mg/kg/injection, vehicle: Klucel (hydroxypropylcellulose) (HPC))?
A: Its T/C is 117 % of control.

Q: What does the source list for `O=C(O)C1CC(c2ccccc2)=NN1c1ccccc1` (stereo not given)?
A: T/C (dose: 12.5 mg/kg/injection, vehicle: water): 102 % of control; T/C (dose: 25.0 mg/kg/injection, vehicle: water): 97 % of control; T/C (dose: 50.0 mg/kg/injection, vehicle: water): 102 % of control; T/C (dose: 100.0 mg/kg/injection, vehicle: water): 112 % of control; T/C (dose: 200.0 mg/kg/injection, vehicle: water): 106 % of control

Q: Which results are given for `CCCCCCCCCCCCCCCCCC(=O)Nc1ccn(C2OC(CO)C(O)C2O)c(=O)n1` (stereo not given)?
A: T/C [6]: 103 % of control and 109 % of control; T/C [7]: 119 % of control; T/C [8]: 160 % of control and 164 % of control

Q: What does the source list for `COc1cc2c(ccc3c4cc(OC)c(OC)cc4c[n+](C)c23)cc1O`?
A: T/C [1]: 111 % of control; T/C [2]: 113 % of control

Q: Which results are given for `Cc1c(N)nc(C(CC(N)=O)NCC(N)C(N)=O)nc1C(=O)NC(C(=O)NC(C)C(O)CC(=O)NC(C(=O)NC(OC1OC(C)C(N)C(O)C1O)C(O)c1nc(-c2nc(C(=O)NCCCC(N)CC(=O)NCCCNCCCCN)cs2)cs1)C(C)O)C(OC1OC(CO)C(O)C(O)C1OC1OC(CO)C(O)C(OC(N)=O)C1O)c1cnc[nH]1` (stereo not given)?
A: T/C (dose: 1.0 mg/kg/injection, vehicle: saline): 124 % of control; T/C [4]: 123 % of control

Q: What does the source list for `CCOC(=O)C1=C(C#N)C2(CCC(OCc3ccccc3)CC2)C(=O)O1` (stereo not given)?
A: T/C [6]: 94 % of control; T/C [7]: 94 % of control; T/C [8]: 92 % of control; T/C (dose: 100.0 mg/kg/injection, vehicle: suspension in saline): 95 % of control; T/C (dose: 200.0 mg/kg/injection, vehicle: suspension in saline): 102 % of control

Q: `COC(OC(CO)C(O)S(=O)(=O)O)C(O)S(=O)(=O)O` (stereo not given) was tested. Which T/C [5] did it give?
A: The T/C was 109 % of control.

Q: What about the T/C [1] of the same compound?
A: Its T/C is 106 % of control.

Q: What about the T/C [2] of the same compound?
A: The T/C was 97 % of control.

Q: What about the T/C [3] of the same compound?
A: Its T/C is 102 % of control.

Q: And the T/C (dose: 200.0 mg/kg/injection, vehicle: saline)?
A: Its T/C is 98 % of control.
